The text below walks through data of US20250089717A1, “FUNGICIDAL HALOMETHYL KETONES, HYDRATES AND ENOL ETHERS AND THEIR MIXTURES” (FMC CORPORATION, priority 2023, published 2025).

Where “and” joins values, the source holds several entries; their conditions need not be identical. Equal entries are not always repeated.

One test concerns Phakopsora pachyrhizi. The experiment in a line: Test A: preventive spray on soybean seedlings, Asian soybean rust, visual disease rating. In kind it is in vivo. To be noted: rate 10 ppm. The source says: General protocol for preparing test suspensions for Test A: the test compounds were first dissolved in acetone in an amount equal to 3% of the final volume and then suspended at the desired concentration (in ppm) in acetone and purified water (50/50 mix by volume) containing 250 ppm of the surfactant PEG400 (polyhydric alcohol esters). The resulting test suspensions were then used in Test A.
The test solution was sprayed to the point of run-off on soybean seedlings. The following day the seedlings were inoculated with a spore suspension of Phakopsora pachyrhizi (the causal agent of Asian soybean rust) and incubated in a saturated atmosphere at 22° C. for 24 h and then moved to a growth chamber at 22° C. for 8 days, after which time visual disease ratings were made.
A rating of 100 indicates 100% disease control and a rating of 0 indicates no disease control (relative to the controls).
With `CCO/C(=C\Oc1ccc(Cn2cc(COC(=O)CC#N)nn2)cc1)C(F)(F)F` [Compound 9], the “Test A rating (100 = 100% disease control, 0 = no disease control relative to the controls)” value worked out at 0%. Consider `CCO/C(=C\Oc1ccc(Cn2cc(COC(=O)COC)nn2)cc1)C(F)(F)F` [Compound 10], for which the “Test A rating (100 = 100% disease control, 0 = no disease control relative to the controls)” value was 0%. Same read-out and setting: for `CCO/C(=C\Oc1ccc(Cn2cc(COC(=O)CC(F)(F)F)nn2)cc1)C(F)(F)F` [Compound 11] the value was 0%; for `CCO/C(=C\Oc1ccc(Cn2cc(COC(=O)C3CCCC3)nn2)cc1)C(F)(F)F` [Compound 12], 79%.

Regarding `CCO/C(=C\Oc1ccc(Cn2cc(COC(C)=O)nn2)cc1)C(F)(F)F` [Compound 37], the “Test A rating (100 = 100% disease control, 0 = no disease control relative to the controls)” value turned out to be 100%. On the same count and under the same terms, for `C#CCOCc1cn(Cc2ccc(O/C=C(\OCC)C(F)(F)F)cc2)nn1` [Compound 38] the value was 78% and 88%; for `CCO/C(=C\Oc1ccc(Cn2cc(COC(=O)C(=O)OC)cn2)cc1)C(F)(F)F` [Compound 48, 1-[[1-[[4-[[(1Z)-2-ethoxy-3,3,3-trifluoro-1-propen-1-yl]oxy]phenyl]methyl]-1H-pyrazol-4-yl]methyl]2-methyl ethanedioate], 100%; for `CCO/C(=C\Oc1ccc(Cn2cc(COC(=O)OC)cn2)cc1)C(F)(F)F` [Compound 52, 1-[[4-[[(1Z)-2-ethoxy-3,3,3-trifluoro-1-propen-1-yl]oxy]phenyl]methyl]-1H-pyrazol-4-yl]methyl methyl carbonate], 100%. Turning to `C=CCON(CC)C(=O)c1cnn(Cc2ccc(O/C=C(\OCC)C(F)(F)F)cc2)c1` [Compound 55, ethyl 1-[[4-[[(1Z)-2-ethoxy-3,3,3-trifluoro-1-propen-1-yl]oxy]phenyl]methyl]-N-(2-propen-1-yloxy)-1H-pyrazole-4-carboxamide], the “Test A rating (100 = 100% disease control, 0 = no disease control relative to the controls)” value is 100%. The same measure, in the same setting: for `CCO/C(=C\Oc1ccc(Cn2cc(COCC3CC3)cn2)c(F)c1)C(F)(F)F` [Compound 68] the value was 100%; for `CCO/C(=C\Oc1ccc(Cn2cc(COC(=O)OC)cn2)c(F)c1F)C(F)(F)F` [Compound 69], 100%; for `CCO/C(=C\Oc1ccc(Cn2cc(COC(=O)CC)cn2)c(F)c1F)C(F)(F)F` [Compound 70], 100%. For `CCO/C(=C\Oc1ccc(Cn2cc(COC(=O)C3CC3)cn2)c(F)c1F)C(F)(F)F` [Compound 71], the “Test A rating (100 = 100% disease control, 0 = no disease control relative to the controls)” value was 100%.

`CCO/C(=C\Oc1ccc(Cn2cc(COC(=O)C(C)(C)C)cn2)c(F)c1F)C(F)(F)F` [Compound 72]: the “Test A rating (100 = 100% disease control, 0 = no disease control relative to the controls)” value amounted to 100%. On the same count and under the same terms, the same measure for `CCO/C(=C\Oc1ccc(Cn2cc(COC(=O)C(C)(C)C)cn2)c(F)c1)C(F)(F)F` [Compound 73]: 100%. Same read-out and setting: for `CCO/C(=C\Oc1ccc(Cn2cc(COC(=O)COC)cn2)c(F)c1F)C(F)(F)F` [Compound 74] the value was 100%; for `CCO/C(=C\Oc1ccc(Cn2cc(COC(=O)COC)cn2)c(F)c1)C(F)(F)F` [Compound 75], 100%. Same read-out and setting: the same measure for `CCO/C(=C\Oc1ccc(Cn2cc(COC(=O)C3CC3)cn2)c(F)c1)C(F)(F)F` [Compound 76]: 100%. As for `CCO/C(=C\Oc1ccc(Cn2cc(COC(=O)CC)cn2)c(F)c1)C(F)(F)F` [Compound 77], the “Test A rating (100 = 100% disease control, 0 = no disease control relative to the controls)” value turned out to be 100%. Still for that read-out and setting: for `CCO/C(=C\Oc1ccc(Cn2cc(C(=O)NOCC#N)cn2)c(F)c1F)C(F)(F)F` [Compound 78] the value was 100%.

The test is the same for the next values; noted with them: rate 10 ppm, read-out: Test A rating (100 = 100% disease control, 0 = no disease control relative to the controls).
With `O=C(OCc1cnn(Cc2ccc(OCC3(C(F)(F)F)OCCO3)cc2)c1)C1CCCC1` [Compound 4, [1-[[4-[[2-(trifluoromethyl)-1,3-dioxolan-2-yl]methoxy]phenyl]methyl]-1H-pyrazol-4-yl]methyl cyclopentanecarboxylate], the pest or weed control at 10 ppm amounted to 90%.

`CCOC(=S)c1cnn(Cc2ccc(O/C=C(\OCC)C(F)(F)F)cc2)c1` [Compound 7, O-ethyl 1-[[4-[[(1Z)-2-ethoxy-3,3,3-trifluoro-1-propen-1-yl]oxy]phenyl]methyl]-1H-pyrazole-4-carbothioate]: the pest or weed control at 10 ppm came out at 100%. Same read-out and setting: the same measure for `CCO/C(=C\Oc1ccc(Cn2cc(COC(=O)N(C)OC)cn2)cc1)C(F)(F)F` [Compound 18, (Z)-(1-(4-((2-ethoxy-3,3,3-trifluoroprop-1-en-1-yl)oxy)benzyl)-1H-pyrazol-4-yl)methyl methoxy(methyl)carbamate]: 100%; for `CCO/C(=C\Oc1ccc(Cn2cc(COC(=O)CC)cn2)cc1)C(F)(F)F` [Compound 21, [1-[[4-[[(1Z)-2-ethoxy-3,3,3-trifluoro-1-propen-1-yl]oxy]phenyl]methyl]-1H-pyrazol-4-yl]methyl propanoate]: 100%. On to `CCO/C(=C\Oc1ccc(Cn2cc(COC(C)=O)cn2)cc1)C(F)(F)F` [Compound 22, [1-[[4-[[(1Z)-2-ethoxy-3,3,3-trifluoro-1-propen-1-yl]oxy]phenyl]methyl]-1H-pyrazol-4-yl]methyl acetate], for which the pest or weed control at 10 ppm was determined as 100%.

In the case of `CCO/C(=C\Oc1ccc(Cn2cc(COC(=O)COC)cn2)cc1)C(F)(F)F` [Compound 23, [1-[[4-[[(1Z)-2-ethoxy-3,3,3-trifluoro-1-propen-1-yl]oxy]phenyl]methyl]-1H-pyrazol-4-yl]methyl 2-methoxyacetate], the pest or weed control at 10 ppm turned out to be 100%. On the same count and under the same terms, the same measure for `CCO/C(=C\Oc1ccc(Cn2cc(COC(=O)CC(C)C)cn2)cc1)C(F)(F)F` [Compound 27, [1-[[4-[[(1Z)-2-ethoxy-3,3,3-trifluoro-1-propen-1-yl]oxy]phenyl]methyl]-1H-pyrazol-4-yl]methyl 3-methylbutanoate]: 100%. Consider `CCCC(C)C(=O)OCc1cnn(Cc2ccc(O/C=C(\OCC)C(F)(F)F)cc2)c1` (stereo not shown) [Compound 30, [1-[[4-[[(1Z)-2-ethoxy-3,3,3-trifluoro-1-propen-1-yl]oxy]phenyl]methyl]-1H-pyrazol-4-yl]methyl 2-methylpentanoate], for which the pest or weed control at 10 ppm is 100%.

As to `CCO/C(=C\Oc1ccc(Cn2cc(C(=O)NOCc3ccccc3)cn2)cc1)C(F)(F)F` [Compound 31, 1-[[4-[[(1Z)-2-ethoxy-3,3,3-trifluoro-1-propen-1-yl]oxy]phenyl]methyl]-N-(phenylmethoxy)-1H-pyrazole-4-carboxamide], the pest or weed control at 10 ppm amounted to 100%. Turning to `CCO/C(=C\Oc1ccc(Cn2cc(COC(=O)CC(F)(F)F)cn2)cc1)C(F)(F)F` [Compound 35, [1-[[4-[[(1Z)-2-ethoxy-3,3,3-trifluoro-1-propen-1-yl]oxy]phenyl]methyl]-1H-pyrazol-4-yl]methyl 3,3,3-trifluoropropanoate], the pest or weed control at 10 ppm worked out at 100%. `C=CCON=C(OCC)c1cnn(Cc2ccc(O/C=C(\OCC)C(F)(F)F)cc2)c1` [Compound 40, ethyl 1-[[4-[[(1Z)-2-ethoxy-3,3,3-trifluoro-1-propen-1-yl]oxy]phenyl]methyl]-N-(2-propen-1-yloxy)-1H-pyrazole-4-carboximidate]: the pest or weed control at 10 ppm stood at 100%. The same measure, in the same setting: for `CCO/C(=C\Oc1ccc(Cn2cc(C(=O)NOCC(F)(F)F)cn2)cc1)C(F)(F)F` [Compound 45, 1-[[4-[[(1Z)-2-ethoxy-3,3,3-trifluoro-1-propen-1-yl]oxy]phenyl]methyl]-N-(2,2,2-trifluoroethoxy)-1H-pyrazole-4-carboxamide] the value was 100%; for `CCO/C(=C\Oc1ccc(Cn2cc(COC(=O)C(C)C)cn2)cc1)C(F)(F)F` [Compound 46, [1-[[4-[[(1Z)-2-ethoxy-3,3,3-trifluoro-1-propen-1-yl]oxy]phenyl]methyl]-1H-pyrazol-4-yl]methyl 2-methylpropanoate], 100%. Same read-out and setting: the same measure for `CCO/C(=C\Oc1ccc(Cn2cc(COC(=O)C(C)(C)C)cn2)cc1)C(F)(F)F` [Compound 47, [1-[[4-[[(1Z)-2-ethoxy-3,3,3-trifluoro-1-propen-1-yl]oxy]phenyl]methyl]-1H-pyrazol-4-yl]methyl 2,2-dimethylpropanoate]: 100%. Regarding `CCO/C(=C\Oc1ccc(Cn2cc(COC(=O)CCSC)cn2)cc1)C(F)(F)F` [Compound 50, [1-[[4-[[(1Z)-2-ethoxy-3,3,3-trifluoro-1-propen-1-yl]oxy]phenyl]methyl]-1H-pyrazol-4-yl]methyl 3-(methylthio)propanoate], the pest or weed control at 10 ppm was determined as 100%. `CCOC(=O)C(OC(C)=O)c1cnn(Cc2ccc(O/C=C(\OCC)C(F)(F)F)cc2)c1` (stereo not drawn) [Compound 54, ethyl α-(acetyloxy)-1-[[4-[[(1Z)-2-ethoxy-3,3,3-trifluoro-1-propen-1-yl]oxy]phenyl]methyl]-1H-pyrazole-4-acetate]: the pest or weed control at 10 ppm worked out at 100%.

Still in this test, the particulars now being: rate 50 ppm, read-out: Test A rating (100 = 100% disease control, 0 = no disease control relative to the controls).
Regarding `CCO/C(=C\Oc1ccc(Cn2cc(CC(=O)N(C)OC)cn2)cc1)C(F)(F)F` [Compound 5, 1-[[4-[[(1Z)-2-ethoxy-3,3,3-trifluoro-1-propen-1-yl]oxy]phenyl]methyl]-N-methoxy-N-methyl-1H-pyrazole-4-acetamide], the pest or weed control at 50 ppm was 94%.
